Results taken from patent publication US10301295B2, “Herbicidal compounds” (Syngenta Participations AG, priority 2014, dated 2019).
Where two headings read alike, the source gives them in different places.

How the values were obtained:
Assay type in all cases: in vivo
[1] = tested on: Alopecurus myosuroides (ALOMY); assay: Glasshouse assay for herbicidal activity, pre-/post-emergence (percentage phytotoxicity); settings: Alopecurus myosuroides, Rate 250 g/ha, 100%=total damage, 0%=no damage
Method: (§1) Seeds of a variety of monocotyledonous and dicotyledonous test plants are sown in standard soil in pots. The plants are cultivated for one day (for pre-emergence) or for about 12 days (for post-emergence) under controlled conditions in a glasshouse (warm climate species at 24/18° C., cool climate species at 20/16° C., both at day/night; 16 hours light; 65% humidity). The test plants are then grown on, in a glasshouse (greenhouse) under controlled conditions (warm climate species at 24/18° C., cool climate species at 20/16° C., both at day/night; 16 hours light; 65% humidity) and are watered twice daily. 15 days after application of the test herbicide (15DAA) (for post-emergence), and 20 days after application of the test herbicide (20DAA) (for pre-emergence), the test plants are evaluated visually, and an assessed percentage phytotoxicity score is given for each herbicidal application on each plant species (with 100%=total damage to plant; 0%=no damage to plant). The plant species tested are as follows: Alopecurus myosuroides (ALOMY), Avena fatua (AVEFA), Lolium perenne (LOLPE), Echinochloa crus-galli (ECHCG).

Avena fatua (AVEFA) = assay: as above; settings: Avena fatua, Rate 250 g/ha, 100%=total damage, 0%=no damage
Method: as §1

[2] = tested on: Echinochloa crus-galli (ECHCG); assay: as above; settings: Echinochloa crus-galli, Rate 250 g/ha, 100%=total damage, 0%=no damage
Method: as §1

Lolium perenne (LOLPE) = assay: as above; settings: Lolium perenne, Rate 250 g/ha, 100%=total damage, 0%=no damage
Method: as §1

wheat = assay: Post-emergence herbicidal activity against cereal crops (wheat) +/- safener, crop selectivity; settings: 100%=total damage to plant, 0%=no damage; for Post-emergence herbicidal activity against wheat (percentage phytotoxicity), +CQC: 250 g/ha, plus safener cloquintocet-mexyl (CQC) applied at 50 g/ha; for percent phytotoxicity (crop damage) to wheat at 250 g/ha: Triticum aestivum, 360 h, without safener, read-out: Post-emergence herbicidal activity against wheat (percentage phytotoxicity), Wheat - CQC
Method: as §1, with “plant).” for “plant). The plant species tested are as follows: Alopecurus myosuroides (ALOMY), Avena fatua (AVEFA), Lolium perenne (LOLPE), Echinochloa crus-galli (ECHCG).”

[3] = 360 h, post-emergence, visual assessment 15 DAA, read-out: Post-emergence herbicidal activity (percentage phytotoxicity), ALOMY POST
[4] = 480 h, pre-emergence, visual assessment 20 DAA, read-out: Pre-emergence herbicidal activity (percentage phytotoxicity), ALOMY PRE
[5] = post-emergence, 360 h, post-emergence, visual assessment 15 DAA, read-out: Post-emergence herbicidal activity (percentage phytotoxicity), AVEFA POST
[6] = pre-emergence, 480 h, pre-emergence, visual assessment 20 DAA, read-out: Pre-emergence herbicidal activity (percentage phytotoxicity), AVEFA PRE
[7] = post-emergence, 360 h, post-emergence, visual assessment 15 DAA, read-out: Post-emergence herbicidal activity (percentage phytotoxicity), ECHCG POST
[8] = pre-emergence, 480 h, pre-emergence, visual assessment 20 DAA, read-out: Pre-emergence herbicidal activity (percentage phytotoxicity), ECHCG PRE
[9] = post-emergence, 360 h, post-emergence, visual assessment 15 DAA, read-out: Post-emergence herbicidal activity (percentage phytotoxicity), LOLPE POST
[10] = pre-emergence, 480 h, pre-emergence, visual assessment 20 DAA, read-out: Pre-emergence herbicidal activity (percentage phytotoxicity), LOLPE PRE

Compound	pest or weed control at 250 g/ha [1, 3] [%]	pest or weed control at 250 g/ha [1, 4] [%]	pest or weed control at 250 g/ha (Avena fatua (AVEFA); [5]) [%]	pest or weed control at 250 g/ha (Avena fatua (AVEFA); [6]) [%]	pest or weed control at 250 g/ha [2, 7] [%]	pest or weed control at 250 g/ha [2, 8] [%]	pest or weed control at 250 g/ha (Lolium perenne (LOLPE); [9]) [%]	pest or weed control at 250 g/ha (Lolium perenne (LOLPE); [10]) [%]	Post-emergence herbicidal activity against wheat (percentage phytotoxicity), +CQC (wheat) [%]	percent phytotoxicity (crop damage) to wheat at 250 g/ha (wheat) [%]
Cc1cc(C)c(C2C(=O)CC(CCNC(=O)Nc3cc(C(C)(C)C)on3)C2=O)c(C)c1 (stereo not shown) [Compound A15]	60	70	50	50	30	70	70	70	30	40
Cc1cc(C)c(C2C(=O)CC(CCNS(=O)(=O)c3ccccc3C)C2=O)c(C)c1 (stereo not shown) [Compound A87]	0	0	50	0	0	30	0	70	0	20
CC(=NOCc1ccccc1)C(=O)NCCC1CC(=O)C(c2c(C)cc(-n3cc(Cl)cn3)cc2C)C1=O (stereo not shown) [Compound A41]	60	0	20	0	60	0	40	0	20	60
Cc1cc(C)c(C2C(=O)CC(CCNC(=O)Nc3ccc(F)cn3)C2=O)c(C)c1 (stereo not shown) [Compound A12]	90	90	90	90	90	100	90	90	80	90
Cc1cc(C)c(C2C(=O)CC(CCNS(=O)(=O)c3ccc(Cl)cc3)C2=O)c(C)c1 (stereo not shown) [Compound A81]	60	60	70	70	60	70	60	70	0	0
Cc1cc(C)c(C2C(=O)CC(CCNC(=O)NC(=O)c3ccc(F)c(F)c3)C2=O)c(C)c1 (stereo not shown) [Compound A56]	80	70	80	40	80	60	90	80	70	80
Cc1cc(C)c(C2C(=O)CC(CCNC(=O)NC(=O)c3ccc(F)cc3F)C2=O)c(C)c1 (stereo not shown) [Compound A53]	90	80	100	70	100	100	100	90	80	90
